Our source for the inhibition values is US20090137580A1, “Fused Heterocyclic Derivatives and Use Thereof” (Takeda Pharmaceutical Company Limited, priority 2005, published 2009).

Each structure is given as a SMILES string.

T1 sequence (P35968 786-1356 limits assumed): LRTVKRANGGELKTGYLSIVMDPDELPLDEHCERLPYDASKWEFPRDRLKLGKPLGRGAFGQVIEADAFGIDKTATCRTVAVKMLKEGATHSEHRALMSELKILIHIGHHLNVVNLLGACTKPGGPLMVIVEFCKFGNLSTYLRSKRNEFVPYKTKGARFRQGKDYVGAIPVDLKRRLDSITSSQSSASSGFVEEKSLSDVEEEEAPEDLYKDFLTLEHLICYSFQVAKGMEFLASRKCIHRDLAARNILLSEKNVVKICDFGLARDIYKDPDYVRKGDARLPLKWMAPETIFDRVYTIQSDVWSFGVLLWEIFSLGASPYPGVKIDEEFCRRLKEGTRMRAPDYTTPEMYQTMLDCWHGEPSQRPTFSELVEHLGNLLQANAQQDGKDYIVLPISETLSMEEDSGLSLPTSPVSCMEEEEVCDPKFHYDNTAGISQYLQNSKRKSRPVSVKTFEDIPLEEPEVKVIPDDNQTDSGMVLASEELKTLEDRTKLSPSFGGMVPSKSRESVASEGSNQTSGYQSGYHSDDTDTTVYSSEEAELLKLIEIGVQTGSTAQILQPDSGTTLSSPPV

This assay has as its target T1, VEGF Receptor 2 Kinase (VEGFR2) (Homo sapiens, UniProt P35968).
T1 construct: made in house; host or cells: SF-21 insect cells, recombinant baculovirus BAC-VEGFR2 (pFASTBAC1)
Briefly: Determination of VEGF receptor 2 kinase (VEGFR2) inhibitory activity (alpha screen). Type of assay: biochemical. As to conditions: VEGFR2 intracellular domain protein, 25 μM ATP buffer, read-out: inhibitory rate (kinase inhibitory rate of VEGFR2). As to the method:
For cloning of human VEGF receptor 2 (hereinafter to be abbreviated as VEGFR2) gene, PCR was performed using cDNA Libraries Human Placenta (Clontech) as a template. The primer used for PCR was prepared by, based on the information of the base sequence (Genbank Accession AF035121) of VEGFR2 gene, adding a base sequence encoding the flag peptide and a restriction enzyme recognition sequence to the base sequence (2671-4374 of Genbank Accession AF035121) encoding the VEGFR2 intracellular domain, so that a flag tag would be added to the N terminal of the protein. The primer base sequence is shown in the following.
PCR reaction was carried out using a KOD-plus kit (TOYOBO). The obtained PCR product was electrophoresed on an agarose gel (1%), and a DNA fragment amplified by PCR was recovered from the gel and digested with restriction enzymes Sal I and Sph I. The DNA after the restriction enzyme treatment was electrophoresed on an agarose gel (1%), and the obtained DNA fragment was recovered and ligated to the plasmid pFASTBAC1 (Invitrogen) digested with restriction enzymes Sal I and Sph I to give an expression plasmid pFB-VEGFR2. The base sequence of the inserted fragment was confirmed to have matched with the base sequence (2671-4374 of Genbank Accession AF035121) of the VEGFR2 intracellular domain. Furthermore, virus stock BAC-VEGFR2 of the recombinant Baculovirus was prepared using BAC-TO-BAC Baculovirus Expression System (Invitrogen).
SF-21 cells were inoculated into 1 L of Sf-900IISFM medium (Invitrogen) containing 10% fetal calf serum (trace), 50 mg/L Gentamicin (Invitrogen) and 0.1% Pluronic F-68 (Invitrogen) at 1×10^6 cells/ml, and shake culture was performed using a 2 L Erlenmeyer flask at 27° C., 100 rpm. After 24 hr of culture, recombinant Baculovirus BAC-VEGFR2 (13.4 mL) was added, and the culture was continued for 3 days. The culture medium was centrifuged at 2,000 rpm for 5 min to give virus-infected cells. The infected cells were washed with phosphate buffered saline (Invitrogen), centrifuged under the same conditions, and preserved at −80° C. The cryopreserved cells were thawed in ice, suspended in 30 mL of buffer A (Tris buffer, pH 7.4, containing 20% glycerol and 0.15M NaCl (50 mM)) supplemented with Complete Protease Inhibitor (Boehringer), and disrupted three times using a polytron homogenizer (Kinematica) at 20,000 rpm, 30 sec. The disrupt was clarified by centrifugation at 40,000 rpm, 30 min and filtered through a 0.45 μm filter. The filtrate was passed through a column packed with Anti-FLAG M2 Affinity Gel (Sigma Ltd., 4 mL) at a flow rate of about 0.5 mL/min. The column was washed with buffer A and eluted with buffer A containing 100 μg/mL FLAG peptide. The eluate was concentrated by Vivaspin 20 (Viva Science) having a fraction molecular weight of 30K. The concentrate was applied to NAP™ 25 column (Amersham Biosciences) equilibrated with buffer A for buffer exchange. The fractions containing the VEGFR2 intracellular domain protein were collected, glycerol was added to the final concentration of 50% and the fractions cryopreserved at ˜80° C.
The test compound dissolved in dimethyl sulfoxide (DMSO) was diluted with a buffer (50 mM Tris-HCl, pH 7.5, 5 mM MgCl2, 5 mM MnCl2, 2 mM dithiothreitol, 0.01% Tween-20). A buffer (10 μl) containing 50 ng/ml VEGFR2 intracellular domain protein and 250 ng/ml biotin-labeled polypeptide biotinyl-poly-Glu:Tyr (4:1) (CIS Bio International) was added to the compound solution (5 μl). A buffer (10 μl) containing 25 μM ATP was added to the obtained mixture, the mixture was allowed to react at 25° C. for 5 min. Then, 25 μl of a stop solution (100 mM EDTA·2 sodium salt, 62.5 mM HEPES buffer (pH 7.4), 250 mM NaCl, 0.1% bovine serum albumin, 10 μg/ml Streptavidin Donor beads: PerkinElmer for alpha screen assay, 10 μg/ml Anti-phosphotyrosine (P-Tyr-100) Acceptor beads: PerkinElmer for alpha screen assay) was added to quench the reaction. […]
Turning to `Cn1ccc2ncnc(Oc3ccc(NC(=O)Nc4cccc(C(F)(F)F)c4)c(Cl)c3)c21` [Example 15, N-{2-chloro-4-[(5-methyl-5H-pyrrolo[3,2-d]pyrimidin-4-yl)oxy]phenyl}-N′-[3-(trifluoromethyl)phenyl]urea], the inhibition at 1 µM is ≥ 90%.
As to `Cn1ccc2ncnc(Oc3ccc(NC(=O)Nc4cccc(OC(F)(F)F)c4)c(Cl)c3)c21` [Example 20, N-{2-chloro-4-[(5-methyl-5H-pyrrolo[3,2-d]pyrimidin-4-yl)oxy]phenyl}-N′-[3-(trifluoromethoxy)phenyl]urea], the inhibition at 1 µM is ≥ 90%.
With `Cc1cc(Oc2ncnc3ccn(C)c23)ccc1NC(=O)Nc1cccc(C(F)(F)F)c1` [Example 41, N-{2-methyl-4-[(5-methyl-5H-pyrrolo[3,2-d]pyrimidin-4-yl)oxy]phenyl}-N′-[3-(trifluoromethyl)phenyl]urea] the figure was ≥ 90%; with `CCn1ccc2ncnc(Oc3ccc(NC(=O)Nc4cccc(C(F)(F)F)c4)c(Cl)c3)c21` [Example 47, N-{2-chloro-4-[(5-ethyl-5H-pyrrolo[3,2-d]pyrimidin-4-yl)oxy]phenyl}-N′-[3-(trifluoromethyl)phenyl]urea], ≥ 90%.
